Tests used:
BT-16 cells = test: Combination therapy viability assay, BT-16; format: cell-based; settings: Homo sapiens, cytotoxic drug alone, 72 hours, read-out: IC50 of compound 2
MON cells = test: Combination therapy viability assay, MON; format: cell-based; settings: Homo sapiens, cytotoxic drug alone, 72 hours, read-out: IC50 of compound 2
DAOY cells = test: Combination therapy viability assay, DAOY; settings: Homo sapiens, 72 h, read-out: IC50 of compound 2

COc1cccc2c1C(=O)c1c(O)c3c(c(O)c1C2=O)C[C@@](O)(C(=O)CO)C[C@@H]3O[C@H]1C[C@H](N)[C@H](O)[C@H](C)O1 [Doxorubicin, doxorubicin]
IC50 (BT-16 cells): 1430 nM | IC50 (MON cells): 134 nM | IC50 (DAOY cells): 263 nM

COc1cc([C@@H]2c3cc4c(cc3[C@@H](O[C@@H]3O[C@@H]5CO[C@@H](C)O[C@H]5[C@H](O)[C@H]3O)[C@H]3COC(=O)[C@H]23)OCO4)cc(OC)c1O [Etoposide, etoposide]
IC50 (BT-16 cells): 800 nM | IC50 (MON cells): 967 nM | IC50 (DAOY cells): 495 nM

From article PMC5762315, “Inhibition of polo-like kinase 4 (PLK4): a new therapeutic option for rhabdoid tumors and pediatric medulloblastoma” (Oncotarget, 2017)
